Here are results for 16 compounds from US9708336B2, “Metallo-beta-lactamase inhibitors” (priority 2014, dated 2017).

One assay addresses NDM-1 (Klebsiella pneumoniae, UniProt C7C422). The assay is described as follows: biochemical. The class given is biochemical. Particulars: NDM-1 enzyme, CCF2-FA substrate; read-out: NDM-1 IC50.
The target in a further assay is IMP-1 (Serratia marcescens, UniProt P52699). Briefly: biochemical. It is filed as biochemical. The settings on record: IMP-1 enzyme, CCF2-FA substrate; read-out: IMP-1 IC50.
IMP-1, sequence (P52699 whole entry, looked up): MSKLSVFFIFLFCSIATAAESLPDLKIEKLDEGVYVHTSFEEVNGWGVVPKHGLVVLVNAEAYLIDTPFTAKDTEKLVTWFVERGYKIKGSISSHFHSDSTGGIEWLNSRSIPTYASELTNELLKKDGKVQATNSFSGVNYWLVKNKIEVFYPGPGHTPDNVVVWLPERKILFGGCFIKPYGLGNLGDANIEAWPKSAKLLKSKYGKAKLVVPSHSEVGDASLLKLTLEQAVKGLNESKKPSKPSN
A further assay has as its target VIM-1 (Pseudomonas aeruginosa (strain ATCC 15692 / DSM 22644 / CIP 104116 / JCM 14847 / LMG 12228 / 1C / PRS 101 / PAO1), UniProt A0A0F7KYQ8). The assay is described as follows: Enzyme activity: determination of IC50, fluorescence assay with CCF2-FA substrate (VIM-1). The class given is biochemical. The settings on record: CCF2-FA substrate.
Assay [1] has as its system Escherichia coli expressing NDM-1 (CLB30016). Briefly: Antibiotic potentiation activity: synergistic concentration (MITC95) with imipenem, OD600 growth. It is filed as cell-based. The settings on record: (CLB30016, NDM-1), 95% growth inhibition. The method in brief:
(§1)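 Growth after 22–24 h at 35 °C is measured spectrophotometrically for bacteria incubated with compound plus imipenem (4 μg/ml in-well, or 1 μg/ml). Cells come from overnight agar colonies resuspended in saline and diluted 1:100 in 1.1× CAMHB.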

Assay [2] deals with Klebsiella pneumoniae expressing VIM-1 (IHMA599644). Described as above. The class given is cell-based. Particulars: Klebsiella pneumoniae IHMA599644 (VIM-1), 95% growth inhibition. The method, boiled down:
as §1

Assay [3] relates to Serratia marcescens expressing IMP-1 (CL5741). Described as above. The class given is cell-based. The settings on record: Serratia marcescens CL5741 (IMP-1), 95% growth inhibition. The method in brief: as §1
[4] abbreviates: VIM-1 enzyme, read-out: VIM-1 IC50.

SMILES strings stand for the structures. Read-outs that look alike come from different tables or passages of the source.

NDM-1, sequence (C7C422 whole entry, looked up, species assumed): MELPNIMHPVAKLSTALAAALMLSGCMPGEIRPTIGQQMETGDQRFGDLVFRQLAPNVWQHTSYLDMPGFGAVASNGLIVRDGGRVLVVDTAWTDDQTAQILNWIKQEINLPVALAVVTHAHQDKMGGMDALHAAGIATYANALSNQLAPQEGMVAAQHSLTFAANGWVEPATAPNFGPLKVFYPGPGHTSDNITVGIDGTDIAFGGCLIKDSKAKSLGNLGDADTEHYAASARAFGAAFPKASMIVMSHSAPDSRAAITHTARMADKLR

Take `Nc1ccc(-c2ccc(CCC3CCNCC3)c(S(N)(=O)=O)c2-c2nnn[nH]2)cn1` [Example 581, 3-(6-aminopyridin-3-yl)-6-(2-(piperidin-4-yl)ethyl)-2-(1H-tetrazol-5-yl)benzenesulfonamide]: the results for the IC50 on NDM-1, at IMP-1 and on VIM-1 (setting [4]) were 8.23 nM, 268 nM and 36.8 nM, respectively. Moreover, the “Escherichia coli MITC95” value in assay [1] was 0.3906 µM. The “Klebsiella pneumoniae MITC95” value in assay [2] stood at 12.5 µM. Moreover, the “Serratia marcescens MITC95” value in assay [3] was found to be 6.25 µM.
With `NS(=O)(=O)c1c(C[C@H]2CC[C@H](N)CC2)ccc(-c2ccc(C3CCNC3)cc2)c1-c1nn[nH]n1` (stereo partly drawn) [Example 582, 4-(((1r,4r)-4-aminocyclohexyl)methyl)-4′-(pyrrolidin-3-yl)-2-(2H-tetrazol-5-yl)-[1,1′-biphenyl]-3-sulfonamide], the half-maximal inhibitory concentration (IC50) was 3.99 nM on NDM-1, 17.4 nM on IMP-1 and 1.57 nM at VIM-1 (setting [4]). Besides, the “Escherichia coli MITC95” value in assay [1] stood at 0.7813 µM. For the same compound, in assay [2], the “Klebsiella pneumoniae MITC95” value is 1.563 µM. In addition, the “Serratia marcescens MITC95” value in assay [3] worked out at 1.563 µM.
For `NS(=O)(=O)c1c(C[C@H]2CC[C@@H](N)CC2)ccc(-c2ccc(C3CCNC3)cc2)c1-c1nnn[nH]1` (stereo partly drawn) [Example 583, 4-(((1s,4s)-4-aminocyclohexyl)methyl)-4′-(pyrrolidin-3-yl)-2-(1H-tetrazol-5-yl)-[1,1′-biphenyl]-3-sulfonamide], the IC50 came out at 6.53 nM at NDM-1, 12 nM on IMP-1 and 23.6 nM on VIM-1 (setting [4]). Besides, in assay [1], the “Escherichia coli MITC95” value worked out at 3.125 µM. Moreover, the “Klebsiella pneumoniae MITC95” value in assay [2] is 6.25 µM. In addition, the “Serratia marcescens MITC95” value in assay [3] came to 6.25 µM.
Consider `NS(=O)(=O)c1c(CC[C@H]2CC[C@H](N)CC2)ccc(-c2ccc(C3CCNC3)cc2)c1-c1nnn[nH]1` (stereo partly drawn) [Example 584, 4-(2-((1r,4s)-4-aminocyclohexyl)ethyl)-4′-(pyrrolidin-3-yl)-2-(1H-tetrazol-5-yl)-[1,1′-biphenyl]-3-sulfonamide], for which the concentration for half-maximal inhibition (IC50) on NDM-1 worked out at 2.05 nM; on IMP-1 it was 10.2 nM; at VIM-1 (setting [4]), 1.61 nM. Moreover, the “Escherichia coli MITC95” value in assay [1] is 1.563 µM. Further, the “Klebsiella pneumoniae MITC95” value in assay [2] was found to be 6.25 µM. In addition, in assay [3], the “Serratia marcescens MITC95” value was 1.563 µM.
Consider `NS(=O)(=O)c1c(CC[C@H]2CC[C@@H](N)CC2)ccc(-c2ccc(C3CCNC3)cc2)c1-c1nnn[nH]1` (stereo partly drawn) [Example 585, 4-(2-((1s,4r)-4-aminocyclohexyl)ethyl)-4′-(pyrrolidin-3-yl)-2-(1H-tetrazol-5-yl)-[1,1′-biphenyl]-3-sulfonamide], for which the figures for the IC50 on NDM-1, at IMP-1 and at VIM-1 (setting [4]) were 2.2 nM, 17 nM and 4.58 nM, respectively. Besides, in assay [1], the “Escherichia coli MITC95” value is 0.7813 µM. The “Klebsiella pneumoniae MITC95” value in assay [2] was 6.25 µM. Besides, the “Serratia marcescens MITC95” value in assay [3] was determined as 3.125 µM.
In the case of `NC[C@H]1CC[C@H](Cc2ccc(-c3ccc(C4CCNC4)cc3)c(-c3nnn[nH]3)c2S(N)(=O)=O)CC1` (stereo partly drawn) [Example 586, 4-(((1r,4r)-4-(aminomethyl)cyclohexyl)methyl)-4′-(pyrrolidin-3-yl)-2-(1H-tetrazol-5-yl)-[1,1′-biphenyl]-3-sulfonamide], the IC50 was found to be 2.34 nM at NDM-1, 7.14 nM on IMP-1 and 1.16 nM on VIM-1 (setting [4]). The “Escherichia coli MITC95” value in assay [1] amounted to 0.7813 µM. Moreover, the “Klebsiella pneumoniae MITC95” value in assay [2] is 1.563 µM. Besides, the “Serratia marcescens MITC95” value in assay [3] turned out to be 1.563 µM.
For `NC[C@H]1CC[C@@H](Cc2ccc(-c3ccc(C4CCNC4)cc3)c(-c3nnn[nH]3)c2S(N)(=O)=O)CC1` (stereo partly drawn) [Example 587, 4-(((1s,4s)-4-(aminomethyl)cyclohexyl)methyl)-4′-(pyrrolidin-3-yl)-2-(1H-tetrazol-5-yl)-[1,1′-biphenyl]-3-sulfonamide], the IC50 on NDM-1 is 0.798 nM; at IMP-1, 2.83 nM; at VIM-1 (setting [4]), 11.5 nM. Besides, in assay [1], the “Escherichia coli MITC95” value came out at 0.7813 µM. In addition, the “Klebsiella pneumoniae MITC95” value in assay [2] is 6.25 µM. Further, the “Serratia marcescens MITC95” value in assay [3] was 1.563 µM.
For `NC[C@H]1CC[C@H](c2ccc(CC3CCNCC3)c(S(N)(=O)=O)c2-c2nn[nH]n2)CC1` [Example 589, 3-((1r,4r)-4-(aminomethyl)cyclohexyl)-6-(piperidin-4-ylmethyl)-2-(2H-tetrazol-5-yl)benzenesulfonamide], the IC50 at NDM-1 was found to be 8.75 nM; on IMP-1, 146 nM; at VIM-1 (setting [4]), 93.9 nM. In addition, in assay [1], the “Escherichia coli MITC95” value worked out at 1.172 µM. Further, the “Klebsiella pneumoniae MITC95” value in assay [2] stood at 9.375 µM. Further, the “Serratia marcescens MITC95” value in assay [3] was 4.688 µM.
On to `NC[C@H]1CC[C@H](c2ccc(CC3CCNCC3)c(S(N)(=O)=O)c2-c2nn[nH]n2)CC1` [Example 590, 3-((1r,4r)-4-(aminomethyl)cyclohexyl)-6-(piperidin-4-ylmethyl)-2-(2H-tetrazol-5-yl)benzenesulfonamide], for which the IC50 on NDM-1 was 8.27 nM; at IMP-1, 24.5 nM; at VIM-1 (setting [4]) it was 8.35 nM. In assay [1], the “Escherichia coli MITC95” value was found to be 1.172 µM. In assay [2], the “Klebsiella pneumoniae MITC95” value came to 2.344 µM. Besides, the “Serratia marcescens MITC95” value in assay [3] came out at 2.344 µM.
Take `NC[C@H]1CC[C@H](c2ccc(CCC3CCNCC3)c(S(N)(=O)=O)c2-c2nnn[nH]2)CC1` [Example 591, 3-((1r,4r)-4-(aminomethyl)cyclohexyl)-6-(2-(piperidin-4-yl)ethyl)-2-(1H-tetrazol-5-yl)benzenesulfonamide]: the IC50 was 16 nM on NDM-1, 320 nM at IMP-1 and 574 nM at VIM-1 (setting [4]). Moreover, the “Escherichia coli MITC95” value in assay [1] came to 1.563 µM. The “Klebsiella pneumoniae MITC95” value in assay [2] stood at 25 µM. Moreover, the “Serratia marcescens MITC95” value in assay [3] worked out at 6.25 µM.
As for `NC[C@H]1CC[C@@H](c2ccc(CCC3CCNCC3)c(S(N)(=O)=O)c2-c2nnn[nH]2)CC1` [Example 592, 3-((1s,4s)-4-(aminomethyl)cyclohexyl)-6-(2-(piperidin-4-yl)ethyl)-2-(1H-tetrazol-5-yl)benzenesulfonamide], the IC50 at NDM-1 was found to be 8.6 nM; on IMP-1 it was 84.1 nM; at VIM-1 (setting [4]), 34.8 nM. The “Escherichia coli MITC95” value in assay [1] was determined as 1.563 µM. Further, the “Klebsiella pneumoniae MITC95” value in assay [2] is 12.5 µM. Besides, the “Serratia marcescens MITC95” value in assay [3] came out at 3.125 µM.
For `NCc1ccc(-c2ccc(CC3CCNCC3)c(S(N)(=O)=O)c2-c2nn[nH]n2)cc1` [Example 593, 4′-(aminomethyl)-4-(piperidin-4-ylmethyl)-2-(2H-tetrazol-5-yl)biphenyl-3-sulfonamide], the figures for the IC50 on NDM-1, on IMP-1 and on VIM-1 (setting [4]) were 38.2 nM, 273 nM and 31.6 nM, respectively. Besides, the “Escherichia coli MITC95” value in assay [1] turned out to be 1.563 µM. Further, the “Klebsiella pneumoniae MITC95” value in assay [2] amounted to 3.125 µM. Moreover, in assay [3], the “Serratia marcescens MITC95” value was 6.25 µM.
As for `N=C(N)NCc1ccc(-c2ccc(CC3CCNCC3)c(S(N)(=O)=O)c2-c2nn[nH]n2)cc1` [Example 594, 4′-(guanidinomethyl)-4-(piperidin-4-ylmethyl)-2-(2H-tetrazol-5-yl)biphenyl-3-sulfonamide], the figures for the IC50 at NDM-1, on IMP-1 and at VIM-1 (setting [4]) were 13.4 nM, 51.7 nM and 5.41 nM, respectively. Also, the “Escherichia coli MITC95” value in assay [1] is 0.7813 µM. In addition, the “Klebsiella pneumoniae MITC95” value in assay [2] turned out to be 1.563 µM. The “Serratia marcescens MITC95” value in assay [3] was 1.563 µM.
Consider `NS(=O)(=O)c1c(C[C@H]2CC[C@H](N)CC2)ccc(-c2ccc(C3CNC3)cc2)c1-c1nn[nH]n1` [Example 595, 4-(((1r,4r)-4-aminocyclohexyl)methyl)-4′-(azetidin-3-yl)-2-(2H-tetrazol-5-yl)-[1,1′-biphenyl]-3-sulfonamide], for which the IC50 at NDM-1 came out at 4.34 nM; at IMP-1 it was 42.6 nM; against VIM-1 (VIM-1 IC50, VIM-1 enzyme) it was 1.3 nM. Further, the “Escherichia coli MITC95” value in assay [1] was determined as 0.7813 µM. In addition, the “Klebsiella pneumoniae MITC95” value in assay [2] worked out at 1.563 µM. For the same compound, in assay [3], the “Serratia marcescens MITC95” value turned out to be 3.125 µM.
For `NS(=O)(=O)c1c(C[C@H]2CC[C@@H](N)CC2)ccc(-c2ccc(C3CNC3)cc2)c1-c1nnn[nH]1` [Example 596, 4-(((1s,4s)-4-aminocyclohexyl)methyl)-4′-(azetidin-3-yl)-2-(1H-tetrazol-5-yl)-[1,1′-biphenyl]-3-sulfonamide], the IC50 on NDM-1 was determined as 4.38 nM; at IMP-1, 10.6 nM; on VIM-1 (VIM-1 IC50, VIM-1 enzyme), 7.46 nM. Besides, in assay [1], the “Escherichia coli MITC95” value worked out at 0.7813 µM. Besides, in assay [2], the “Klebsiella pneumoniae MITC95” value turned out to be 1.563 µM. Also, the “Serratia marcescens MITC95” value in assay [3] worked out at 1.563 µM.
Turning to `NS(=O)(=O)c1c(CC2CCNCC2)ccc(-c2ccc(C3CNC3)cc2)c1-c1nnn[nH]1` [Example 597, 3-[4-(azetidin-3-yl)phenyl]-6-(4-piperidylmethyl)-2-(1H-tetrazol-5-yl)benzenesulfonamide], the results for the IC50 at NDM-1, on IMP-1 and on VIM-1 (setting [4]) were 8.86 nM, 46 nM and 1.24 nM, respectively. Besides, the “Escherichia coli MITC95” value in assay [1] was found to be 1.563 µM. Besides, the “Klebsiella pneumoniae MITC95” value in assay [2] was found to be 1.563 µM. In addition, the “Serratia marcescens MITC95” value in assay [3] was determined as 3.125 µM.
